{"source": "paper PMC5847527", "about": "“Identification of a novel 2-oxindole fluorinated derivative as in vivo antitumor agent for prostate cancer acting via AMPK activation” (Scientific Reports, 2018)", "key": {"[1]": {"system": "PC-3, DU145 and LNCaP cells", "experiment": "Cell viability by cell counting (Trypan blue)", "format": "cell-based", "details": "25 µM", "experimental": "Figure 3 Comparison of the effect of 2-oxindole fluorinated derivatives on the proliferation of human prostate cancer cells. (A) Normal (PTN2 and RWPE-1) and cancer (PC3,DU145 and LNCaP) prostate cells were treated with different doses of the compounds for 24 hours and cell viability was monitored by MTT assay. […] (C) PC-3, DU145 and LNCaP cells were treated with 25 µM of compound 8c for different times. Values were normalized with the control and represent the mean ± SD of at least three independent experiments. *p < 0.05 and **p < 0.01 compared to control by the Student’s - test.\nTo confirm the antiproliferative effect of compound 8c, cell viability was evaluated by cell counting at different times in PC-3, DU145 and LNCaP cells.\nCell viability was determined by 3-(4,5-dimethylthiazol-2-yl)-2,5-diphenyltetrazolium bromide (MTT) (Sigma-Aldrich) method. […] The optical density in each well was evaluated by measurement of absorbance at 490 and 650 nm using a microplate reader (ELX 800 Bio-Tek Intruments, INC). IC50 values were calculated using GraphPad Prism vs 6.0 (GraphPad Software, Inc, La Jolla, CA, USA). Cell viability was also determined by counting viable and dead cells by Trypan blue staining. Trypan blue positive and negative cells were counted using a Countess^TM automated cell counter (Invitrogen, Carlsbad, CA, USA). […]"}, "p21": {"system": "p21", "experiment": "p21 level by Western blot in PC-3 and LNCaP cells", "format": "cell-based, human", "experimental": "(§1) Figure 4 Cell Cycle analysis in 8c-treated prostate cancer cells. (A) PC-3 and LNCaP cells were treated with compound 8c for 24 hours and cell cycle analysis was analyzed by flow cytometry using Propidium Iodide (PI). Percentage of cells in subG0, G1, S, and G2/M phases is indicated in the histogram. (B) Levels of Cyclin D1, p-p53, p53, p21 and cleaved Caspase 3 (17 kDa fragment) were determined by Western blot. Upper panel, representative Western blot of two different experiments. β-tubulin (β-Tub) serves as a loading control. […]\n(§2) Cyclin D1 activity is modulated by several inhibitors such as p21 which negatively regulate cell cycle progression by interacting with cyclin dependent kinases (cdks). […] To further study the role of compound 8c in cell cycle, we determined the expression of p21, p53 and the levels of cleaved caspase 3 in the prostate cells. P53 was only determined in LNCaP cells since PC-3 cells are p53-negative[40].\n(§3) Cells were lysed in Lysis buffer (50 mM Tris pH 7.4, 0.8 M NaCl, 5 mM MgCl2, 0.1% Triton X-100) containing Protease Inhibitor and Phosphatase inhibitor Cocktails (Roche, Basel, Switzerland). Protein concentrations were measured by BioRad™ protein assay kit (Richmond, CA, USA). […] Films were analyzed by densitometry. […]"}, "[2]": {"system": "cleaved Caspase 3 (17 kDa fragment)", "experiment": "Cleaved Caspase 3 level by Western blot in prostate cells", "format": "cell-based, human", "experimental": "as §1, §2, §3"}, "[3]": {"biological_target": "T1, human recombinant AMPK isoform α1β1γ1 (Homo sapiens, UniProt P54619+Q13131+Q9Y478)", "T1 construct": "purchased Invitrogen", "T1 sequence (Q13131 whole entry, canonical isoform)": "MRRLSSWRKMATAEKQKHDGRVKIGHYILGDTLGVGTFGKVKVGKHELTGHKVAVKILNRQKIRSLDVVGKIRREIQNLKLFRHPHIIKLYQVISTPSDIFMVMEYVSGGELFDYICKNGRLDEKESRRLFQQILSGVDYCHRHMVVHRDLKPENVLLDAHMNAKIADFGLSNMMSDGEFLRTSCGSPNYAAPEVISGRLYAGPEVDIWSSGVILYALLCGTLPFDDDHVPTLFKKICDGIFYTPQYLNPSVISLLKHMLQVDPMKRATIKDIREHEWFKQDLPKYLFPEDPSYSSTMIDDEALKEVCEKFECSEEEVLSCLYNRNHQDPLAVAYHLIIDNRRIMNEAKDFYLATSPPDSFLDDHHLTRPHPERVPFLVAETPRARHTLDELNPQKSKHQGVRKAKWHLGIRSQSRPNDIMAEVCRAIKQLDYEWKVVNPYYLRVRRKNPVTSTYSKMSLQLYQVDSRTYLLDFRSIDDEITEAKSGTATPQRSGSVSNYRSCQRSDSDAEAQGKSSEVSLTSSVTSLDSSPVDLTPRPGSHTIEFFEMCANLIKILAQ", "T1 sequence (Q9Y478 whole entry, canonical isoform)": "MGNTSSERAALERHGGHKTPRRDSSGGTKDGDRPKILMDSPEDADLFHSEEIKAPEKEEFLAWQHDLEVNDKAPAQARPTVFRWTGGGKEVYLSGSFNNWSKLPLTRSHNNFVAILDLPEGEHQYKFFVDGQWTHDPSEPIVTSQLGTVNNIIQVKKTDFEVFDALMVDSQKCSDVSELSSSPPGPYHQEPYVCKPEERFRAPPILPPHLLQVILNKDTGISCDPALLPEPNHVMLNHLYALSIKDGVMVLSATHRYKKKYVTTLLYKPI", "T1 sequence (P54619 whole entry, canonical isoform)": "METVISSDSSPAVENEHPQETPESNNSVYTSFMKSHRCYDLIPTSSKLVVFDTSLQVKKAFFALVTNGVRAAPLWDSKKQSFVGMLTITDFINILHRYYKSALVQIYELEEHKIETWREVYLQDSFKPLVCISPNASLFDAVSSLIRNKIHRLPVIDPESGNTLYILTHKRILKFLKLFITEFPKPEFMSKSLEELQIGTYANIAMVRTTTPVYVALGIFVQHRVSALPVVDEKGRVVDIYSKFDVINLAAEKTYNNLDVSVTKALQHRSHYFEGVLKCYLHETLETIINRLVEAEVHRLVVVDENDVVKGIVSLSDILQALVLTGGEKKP", "experiment": "In vitro AMPK enzymatic assay (AMARA peptide, Delfia), α1β1γ1", "format": "biochemical", "details": "30 μM, p < 0.001", "description": "This assay evaluated the ability of the compound to activate AMPK and in turn phosphorylate the synthetic substrate peptide [sequence].\nData are the mean ± S.D. of four experiments. **p < 0.01 and ***p < 0.001 compared by the Student’s t-test.\nThe effect of compounds in the in vitro human recombinant AMPK activity assay was measured by monitoring phosphorylation of the “AMARA” peptide using Delfia technology. […] Final concentration of DMSO was 1%. Reactions were initiated by the addition of AMPK (0.1U). Following mixing, the plates were incubated for 30 min at room temperature. Enzyme activity was assayed by using an anti-phospho-serine antibody to measure the quantity of phosphate incorporated into the AMARAA peptide."}, "AMPKα1 1–550 fragment": {"system": "AMPKα1 1–550 fragment", "experiment": "Activity on isolated AMPKα1 1–550 fragment", "format": "biochemical, human", "details": "fragment containing the catalytic domain", "excerpt": "We also assayed the effect of compound 8c on a fragment of the α1 isoform (aa 1–550) that contains the catalytic domain.\n(B) Activity of compound 8c on isolated AMPKα1 1–550 fragment. […] Data are the mean ± S.D. of four experiments. **p < 0.01 and ***p < 0.001 compared by the Student’s t-test."}}}
{"smiles": "O=C1Nc2ccccc2C1(F)Cc1ccc(-c2ccccc2)o1", "note": "(centres unmarked) [Compound 8c, 3-fluoro-3-((5-phenylfuran-2-yl)methyl)indolin-2-one]", "values": [{"measurement": "cytotoxic effect by cell counting at different times", "setting": "[1]", "value": "time-dependent strong cytotoxic effect"}, {"measurement": "p21 protein level", "setting": "p21", "value": "remarkably increase in p21 protein"}, {"measurement": "cleaved caspase 3 (17 kDa fragment)", "setting": "[2]", "value": "increase in cleaved caspase 3"}, {"measurement": "increase of AMPK α1β1γ1 activity", "setting": "[3]", "value": 75, "unit": "%"}, {"measurement": "AMPK activity of α1 isoform fragment (aa 1–550)", "setting": "AMPKα1 1–550 fragment", "value": "no change in AMPK activity"}]}
